{"source": "paper PMC11274128", "about": "“Modification and Synergistic Studies of a Novel Frog Antimicrobial Peptide against Pseudomonas aeruginosa Biofilms” (Antibiotics, 2024)", "key": {"K. pneumoniae ATCC 43816": {"system": "K. pneumoniae ATCC 43816", "conditions": "checkerboard MIC, planktonic K. pneumoniae ATCC 43816, 37 °C, 24 h, OD 550 nm", "experimental": "(§1) The bacteria were cultured, subcultured, diluted, and incubated as the methods of the MIC assay. The pure peptides and antibiotics were weighed and, respectively, dissolved in DMSO and dd water to make the final concentration of 2× MIC. […] Different concentrations of peptide and antibiotic solutions were added to a 96-well plate in the form of a checkerboard grid. The blank control and growth control were still 100 µL medium and 100 µL bacterial culture. The plate was incubated at 37 °C for 24 h. After that, the plate reader was used to monitor the absorbance of each well at 550 nm (The Synergy TM HT, BioTek, Winooski, VT, USA).\n(§2) Parameter fractional inhibitory concentration indices (FICIs) were used to evaluate the synergistic effect, and the value of that was calculated as follows:FICI = FICa + FICb FICa = MIC combination peptide/MIC single peptide FICb = MIC combination antibiotic/MIC single antibiotic\n(§3) The FICI value was interpreted as “synergy” (FICI ≤ 0.5), “no interaction” (0.5 < FICI ≤ 4), or “antagonism” (FICI > 4)."}, "[1]": {"system": "P. aeruginosa ATCC CRM 9027", "conditions": "checkerboard MIC, planktonic P. aeruginosa ATCC CRM 9027, 37 °C, 24 h, OD 550 nm", "experimental": "as §1, §2, §3"}, "S. aureus ATCC 6538": {"system": "S. aureus ATCC 6538", "conditions": "checkerboard MIC, planktonic S. aureus ATCC 6538, 37 °C, 24 h, OD 550 nm", "experimental": "as §1, §2, §3"}, "MRSA NCTC 12493": {"system": "MRSA NCTC 12493", "conditions": "checkerboard MIC, planktonic MRSA NCTC 12493, 37 °C, 24 h, OD 550 nm", "experimental": "as §1, §2, §3"}, "E. coli ATCC 8739": {"system": "E. coli ATCC 8739", "conditions": "checkerboard MIC, planktonic E. coli ATCC 8739, 37 °C, 24 h, OD 550 nm", "experimental": "as §1, §2, §3"}, "E. faecalis (NCTC 12697)": {"system": "E. faecalis (NCTC 12697)", "experiment": "microbe, parasite or virus in culture", "type": "cell-based, Enterococcus faecalis", "conditions": "planktonic E. faecalis NCTC 12697; for MIC: 37 °C, nine repeats of three independent experiments; for MBC: lowest concentration killing 99.9% of inoculum", "excerpt": "(§4) The minimum inhibitory concentration (MIC) is the minimum concentration of an antimicrobial agent that prevents the visible growth of a bacterium or bacteria. The MIC is an important piece of data for research on new antimicrobial agents and helps in the effective selection of antibiotics to improve the success of treatment. The minimum bactericidal concentration (MBC) is defined as the lowest antibiotic concentration that kills 99.9% of the inoculum. This study mainly contained eight different microorganisms, which were Staphylococcus aureus (ATCC 6538), methicillin-resistant Staphylococcus aureus (NCTC 12493), Enterococcus faecalis (NCTC 12697), Escherichia coli (ATCC 8739), Klebsiella pneumoniae (ATCC 43816), Pseudomonas aeruginosa (ATCC CRM 9027), Acinetobacter baumannii (BAA 747), and Candida albicans (ATCC 10231). The bacteria were incubated in the compatible medium at 37 °C overnight."}, "[2]": {"system": "P. aeruginosa (ATCC CRM 9027)", "experiment": "microbe, parasite or virus in culture", "type": "cell-based, Pseudomonas aeruginosa", "conditions": "planktonic P. aeruginosa ATCC CRM 9027; for MIC: 37 °C, nine repeats of three independent experiments; for MBC: lowest concentration killing 99.9% of inoculum", "excerpt": "as §4"}, "[3]": {"system": "K. pneumoniae ATCC 43816 biofilm", "type": "cell-based, Klebsiella pneumoniae", "conditions": "for MBIC: lowest concentration inhibiting at least 90% of biofilm formation; for MBEC: minimum concentration eradicating at least 99% of the biofilm", "excerpt": "(§5) The minimum bactericidal concentration (MBC) is defined as the lowest antibiotic concentration that kills 99.9% of the inoculum. The minimum biofilm inhibitory concentration (MBIC) is the lowest concentration that inhibits at least 90% of the formation of biofilm. The minimum biofilm eradication concentration (MBEC) is the minimum concentration that can eradicate at least 99% of the biofilm. In addition to the eight microorganisms described previously, this experiment was also applied to P. aeruginosa (ATCC 27853, ATCC BAA-2108, P. aeruginosa 01, P. aeruginosa 14)."}, "MRSA NCTC 12493 biofilm": {"system": "MRSA NCTC 12493 biofilm", "type": "cell-based, methicillin-resistant Staphylococcus aureus", "conditions": "for MBIC: lowest concentration inhibiting at least 90% of biofilm formation; for MBEC: minimum concentration eradicating at least 99% of the biofilm", "excerpt": "as §5"}, "E. coli (ATCC 8739)": {"system": "E. coli (ATCC 8739)", "experiment": "microbe, parasite or virus in culture", "type": "cell-based, Escherichia coli", "conditions": "planktonic E. coli ATCC 8739; for MIC: 37 °C, nine repeats of three independent experiments, read-out: MIC; for MBC: lowest concentration killing 99.9% of inoculum, read-out: MBC", "excerpt": "as §4"}, "G− Bacteria": {"system": "G− Bacteria", "experiment": "Geometric mean of MICs and TI value", "type": "cell-based", "conditions": "geometric mean of MICs against tested Gram-negative bacteria", "experimental": "The therapeutic potential of antimicrobial agents was valued based on their selectivity toward bacteria in reference to erythrocytes. The TI value was calculated from the results of antibacterial and haemolysis experiments of peptides using the following formula:TI value = HC10 / GMMICs.\nGM was the geometric mean of MICs against all tested bacteria."}, "[4]": {"conditions": "peptide combined with gentamicin"}, "[5]": {"conditions": "peptide combined with levofloxacin"}, "[6]": {"conditions": "peptide combined with vancomycin"}}, "note": "Read-outs that look alike come from different tables or passages of the source. Bridge positions count the residues as written; N and C are the ends. Peptide text beside a SMILES is read from it.", "data": [{"compound": "CC[C@H](C)[C@H](NC(=O)[C@H](CCCCN)NC(=O)[C@H](CCCCN)NC(=O)CNC(=O)[C@H](C)NC(=O)CNC(=O)[C@H](CC(C)C)NC(=O)[C@@H](NC(=O)CNC(=O)[C@H](CO)NC(=O)[C@H](CC(C)C)NC(=O)[C@H](CC(C)C)NC(=O)CN)C(C)C)C(=O)N[C@H](C(=O)N[C@H]1CSSC[C@@H](C(=O)O)NC(=O)[C@H](CCCNC(=N)N)NC(=O)CNC(=O)[C@H](CO)NC(=O)[C@H](CC(C)C)NC(=O)CNC1=O)C(C)C", "note": "[Nigrosin-6VL] (H-GLLSGVLGAGKKIVCGLSGRC-OH; disulfide 15-21)", "values": [{"measurement": "FICI", "setting": "K. pneumoniae ATCC 43816; peptide combined with cefepime", "result": 0.1875}, {"measurement": "FICI", "setting": "K. pneumoniae ATCC 43816; [4]", "result": 0.1875}, {"measurement": "FICI", "setting": "K. pneumoniae ATCC 43816; [5]", "result": 0.625}, {"measurement": "FICI", "setting": "K. pneumoniae ATCC 43816; [6]", "result": 1.125}, {"measurement": "FICI", "setting": "[1]; peptide combined with cefepime", "result": 0.5}, {"measurement": "FICI", "setting": "[1]; [4]", "result": 0.5}, {"measurement": "FICI", "setting": "[1]; [5]", "result": 0.5}, {"measurement": "FICI", "setting": "[1]; [6]", "result": ">4"}, {"measurement": "FICI", "setting": "S. aureus ATCC 6538; peptide combined with cefepime", "result": 0.625}, {"measurement": "FICI", "setting": "S. aureus ATCC 6538; [4]", "result": 1.5}, {"measurement": "FICI", "setting": "S. aureus ATCC 6538; [5]", "result": 0.625}, {"measurement": "FICI", "setting": "S. aureus ATCC 6538; [6]", "result": 2.25}, {"measurement": "FICI", "setting": "MRSA NCTC 12493; peptide combined with cefepime", "result": 0.75}, {"measurement": "FICI", "setting": "MRSA NCTC 12493; [4]", "result": 0.5}, {"measurement": "FICI", "setting": "MRSA NCTC 12493; [5]", "result": 2}, {"measurement": "FICI", "setting": "MRSA NCTC 12493; [6]", "result": 1}, {"measurement": "FICI", "setting": "E. coli ATCC 8739; peptide combined with cefepime", "result": 0.375}, {"measurement": "FICI", "setting": "E. coli ATCC 8739; [4]", "result": 0.125}, {"measurement": "FICI", "setting": "E. coli ATCC 8739; [5]", "result": 0.375}, {"measurement": "FICI", "setting": "E. coli ATCC 8739; [6]", "result": 1.125}, {"measurement": "MIC", "setting": "E. faecalis (NCTC 12697)", "result": "> 128", "unit": "µM"}, {"measurement": "MBC", "setting": "E. faecalis (NCTC 12697)", "result": "> 128", "unit": "µM"}, {"measurement": "MIC", "setting": "[2]; read-out: MIC", "result": 32, "unit": "µM"}, {"measurement": "MBC", "setting": "[2]; read-out: MBC", "result": 128, "unit": "µM"}, {"measurement": "MBIC", "setting": "[3]", "result": ">128/>128 µM"}, {"measurement": "MBEC", "setting": "[3]", "result": ">128/>128 µM"}, {"measurement": "MBIC", "setting": "MRSA NCTC 12493 biofilm", "result": ">128/>128 µM"}, {"measurement": "MBEC", "setting": "MRSA NCTC 12493 biofilm", "result": ">128/>128 µM"}, {"measurement": "MIC", "setting": "E. coli (ATCC 8739)", "result": 64, "unit": "µM"}, {"measurement": "MBC", "setting": "E. coli (ATCC 8739)", "result": 128, "unit": "µM"}, {"measurement": "GM (geometric mean of MICs), G− Bacteria", "setting": "G− Bacteria", "result": 90.51, "unit": "µM"}]}, {"compound": "CC[C@H](C)[C@H](NC(=O)[C@H](CCCCN)NC(=O)[C@H](CCCCN)NC(=O)CNC(=O)[C@H](C)NC(=O)[C@H](CCCNC(=N)N)NC(=O)[C@H](CC(C)C)NC(=O)[C@@H](NC(=O)[C@H](C)NC(=O)[C@H](CCCNC(=N)N)NC(=O)[C@H](CC(C)C)NC(=O)[C@H](CC(C)C)NC(=O)CN)C(C)C)C(=O)N[C@H](C(=O)N[C@H]1CSSC[C@@H](C(=O)O)NC(=O)[C@H](CCCNC(=N)N)NC(=O)CNC(=O)[C@H](CO)NC(=O)[C@H](CC(C)C)NC(=O)CNC1=O)C(C)C", "note": "[Peptide 2170-2R] (H-GLLRAVLRAGKKIVCGLSGRC-OH; disulfide 15-21)", "values": [{"measurement": "FICI", "setting": "K. pneumoniae ATCC 43816; peptide combined with cefepime", "result": 0.1875}, {"measurement": "FICI", "setting": "K. pneumoniae ATCC 43816; [4]", "result": 0.1562}, {"measurement": "FICI", "setting": "K. pneumoniae ATCC 43816; [5]", "result": 1}, {"measurement": "FICI", "setting": "K. pneumoniae ATCC 43816; [6]", "result": 1.125}, {"measurement": "FICI", "setting": "[1]; peptide combined with cefepime", "result": 0.5}, {"measurement": "FICI", "setting": "[1]; [4]", "result": 0.5}, {"measurement": "FICI", "setting": "[1]; [5]", "result": 0.625}, {"measurement": "FICI", "setting": "[1]; [6]", "result": 1.125}, {"measurement": "FICI", "setting": "S. aureus ATCC 6538; peptide combined with cefepime", "result": 1}, {"measurement": "FICI", "setting": "S. aureus ATCC 6538; [4]", "result": 1}, {"measurement": "FICI", "setting": "S. aureus ATCC 6538; [5]", "result": 0.625}, {"measurement": "FICI", "setting": "S. aureus ATCC 6538; [6]", "result": 0.625}, {"measurement": "FICI", "setting": "MRSA NCTC 12493; peptide combined with cefepime", "result": 0.75}, {"measurement": "FICI", "setting": "MRSA NCTC 12493; [4]", "result": 0.375}, {"measurement": "FICI", "setting": "MRSA NCTC 12493; [5]", "result": 1.125}, {"measurement": "FICI", "setting": "MRSA NCTC 12493; [6]", "result": 0.625}, {"measurement": "FICI", "setting": "E. coli ATCC 8739; peptide combined with cefepime", "result": 0.5312}, {"measurement": "FICI", "setting": "E. coli ATCC 8739; [4]", "result": 0.125}, {"measurement": "FICI", "setting": "E. coli ATCC 8739; [5]", "result": 0.375}, {"measurement": "FICI", "setting": "E. coli ATCC 8739; [6]", "result": ">4"}, {"measurement": "MIC", "setting": "E. faecalis (NCTC 12697)", "result": 128, "unit": "µM"}, {"measurement": "MBC", "setting": "E. faecalis (NCTC 12697)", "result": 128, "unit": "µM"}, {"measurement": "MIC", "setting": "[2]", "result": 32, "unit": "µM"}, {"measurement": "MBC", "setting": "[2]", "result": 32, "unit": "µM"}, {"measurement": "MBIC", "setting": "[3]", "result": 32, "unit": "µM"}, {"measurement": "MBEC", "setting": "[3]", "result": "> 128", "unit": "µM"}, {"measurement": "MBIC", "setting": "MRSA NCTC 12493 biofilm", "result": 4, "unit": "µM"}, {"measurement": "MBEC", "setting": "MRSA NCTC 12493 biofilm", "result": 16, "unit": "µM"}, {"measurement": "MIC", "setting": "E. coli (ATCC 8739)", "result": 4, "unit": "µM"}, {"measurement": "MBC", "setting": "E. coli (ATCC 8739)", "result": 8, "unit": "µM"}, {"measurement": "GM (geometric mean of MICs), G− Bacteria", "setting": "G− Bacteria", "result": 11.31, "unit": "µM"}]}]}
